Data: patent US8552069B2, “Method for treatment of obesity, dyslipidemia, fatty liver or insulin resistance syndrome comprising camphene as active ingredient” (Industry-Academic Cooperation Foundation, Yonsei University, priority 2009, dated 2013)
Marks after values point to notes of the source that are not given here.

Legend:
C/EBPα = assay: RT-PCR mRNA expression in epididymal (visceral) fat tissue: C/EBPα; format: in vivo, mouse; conditions: as compared to the high-fat diet group, FIGS. 5a and 5b
Method: (§1) After adding 1 mL of TRIzol solution per 0.1 g of epididymal fat tissue, centrifugation was performed at 4° C. and 12,000×g for 10 minutes. The supernatant was transferred to a fresh tube and vortexed after adding 200 μL of chloroform. After repeating this procedure twice, the supernatant was transferred to a fresh tube and isopropanol was added to the supernatant at a ratio of 1:1. After shaking strongly for 10 times and keeping at room temperature for 10 minutes, centrifugation was performed at 4° C. and 12,000×g for 10 minutes. After removing the supernatant and adding 1 mL of 70% ethanol to the remaining pellets, centrifugation was performed at 4° C. and 7,500×g for 5 minutes. After removing ethanol, the RNA pellets held in the tube were dried at room temperature for 5 minutes and dissolved using nuclease-free water. The concentration of the extracted RNA was measured at 260 nm and 280 nm using a UV/VIS spectrophotometer (Beckman Coulter, DU730), and the integrity of RNA was analyzed by agarose gel electrophoresis.
(§2) cDNA was synthesized by performing reverse transcription for the RNA sample extracted from the epididymal fat tissue using oligo-dT primer and SuperScript reverse transcriptase (GIBCO BRL, Gaithersburg, Md., USA). […]

3T3-L1 cells = assay: Suppression of differentiation of 3T3-L1 preadipocytes into adipocytes (Oil Red O staining); format: cell-based, mouse; conditions: camphene 0.1, 1, 10, 50 and 100 μM, 14 days
Method: Mouse 3T3-L1 cells were used to investigate the effect of camphene on differentiation and growth of adipocytes. The preadipocytes, 3T3-L1 cells, were seeded on a 12-well plate and cultured to confluency using Dulbecco's modified Eagle's medium (DMEM) containing 1% penicillin-streptomycin, 1% nonessential amino acid and 10% fatal bovine serum (FBS), in a 5% CO2 incubator at 37° C. The 3T3-L1 cells grown to confluency were cultured for 2 days in a medium containing MDI (0.5 mM isobutylmethylxanthine, 1 μM dexamethasone and 1 μg/mL insulin) to differentiate them into adipocytes. Then, the cells were further cultivated in DMEM containing 1 μg/mL insulin to differentiate them into mature adipocytes. The cells were further cultured for 10 more days while replacing DMEM every other day to obtain fully differentiated adipocytes. From the first day when MDI was added to the 3T3-L1 cells, camphene was treated at concentrations of 0.1, 1, 10, 50 and 100 μM with 2-day intervals. (±)-Camphene purchased from Sigma-Aldrich was used after being dissolved in DMSO. Only DMSO was added to the negative control group. […] In order to measure the level of triglyceride contained in the differentiated 3T3-L1 cells, the stained lipid droplets were dissolved in 1 mL of isobutanol and OD value was measured at 600 nm.

[1] = system: Gram-positive bacteria, Gram-negative bacteria and fungi; conditions: cited from earlier work
PPARγ2 = assay: RT-PCR mRNA expression in epididymal (visceral) fat tissue: PPARγ2; format: in vivo, mouse; conditions: as compared to the high-fat diet group, FIGS. 5a and 5b
Method: as §1, §2

TNFα = assay: RT-PCR mRNA expression in visceral fat tissue: TNFα; format: in vivo, mouse; conditions: versus HFD group, FIGS. 6a and 6b
Method: as §1, §2

C57BL/6J mice [2] = assay: Body weight and visceral fat weight of mice fed high-fat diet containing camphene; format: in vivo, mouse; conditions: 0.2% camphene in high-fat diet, 10 weeks
Method: (§3) The obesity-inducing diet used in this example was high-fat diet (HFD: 40% fat calorie, 17 g lard+3% corn oil/100 g diet). Camphene-containing diet had the same composition as HFD, except that camphene was included at 0.2%. Normal diet (ND) was prepared with the composition of AIN-76 rodent diet (American Institute of Nutrition, Report of the American Institute of Nutrition ad hoc committee on standards for nutritional studies. J. Nutr. 107: 1340-1348, 1977) (see Table 1). (±)-Camphene was purchased from Sigma-Aldrich. [table] 5-week-old male C57BL/6J mice (Orient, Korea) were accustomed to the laboratory environment for 1 week while feeding solid feed. Then, they were randomly divided into high-fat diet control group and test group and bred for a total of 10 weeks. The diet was given between 10 and 11 a.m. every day together with water. Diet intake was measured every day and body weight was measured once in 3 days. In order to avoid transient body weight increase after feed intake, body weight was measured 2 hours after removing the feed. Feeding efficiency was calculated by dividing accumulated body weight gain during the test period, i.e. from the test diet was given first until the day when the mouse was sacrificed, by total diet intake. After fasting the test animal for at least 12 hours and anesthetizing with diethyl ether, blood, liver and visceral fat (epididymal fat, perirenal fat, mesenteric fat and retroperitoneal fat) were taken and weighed after washing with 0.1 M PBS (pH 7.4). Blood taken from the abdominal aorta was centrifuged at 1000×g for 15 minutes to separate the serum.

C57BL/6J mice [3] = assay: Obesity-related biochemical indices in blood (serum) of high-fat diet mice; format: in vivo, mouse; conditions: 10 weeks
Method: as §3, with “Sigma-Aldrich.” for “Sigma-Aldrich. [table]”, “serum. Total cholesterol, triglyceride and glucose levels in the serum were measured twice for each using a commercially available kit (Bio Clinical system), and insulin level was measured by ELISA using a mouse insulin kit (Shibayaki, Japan). Lipids were extracted from the liver tissue according to Folch et al.'s method. After adding 1 mL of distilled water to 0.25 g of liver tissue, the liver tissue was homogenized using a Polytron homogenizer (IKA-Werke GmbH & Co., Ultra-Turrax, Staufen, Germany). After adding 5 mL of chloroform:methanol solution (2:1, v/v) to the homogenate and mixing well, the mixture was centrifuged at 1000×g for 10 minutes. After adding 2 mL of chloroform:methanol solution (2:1, v/v) again to the supernatant, the same procedure was repeated to completely separate the lipid components of the liver. After adding 3 mL of chloroform:methanol:0.05% CaCl2 (3:48:47, v/v/v) solution to the remaining pellets and mixing well for 1 minute, followed by centrifugation at 1000×g for 10 minutes, the resulting pellets were completely dried with nitrogen gas. The dried lipids were dissolved in 1 mL of methanol and then analyzed. The same kit (Bio Clinical system) as the one used for the serum analysis was used to measure the triglyceride level of the liver tissue.” for “serum.”

NF-κB = conditions: mouse macrophage cells (RAW 264.7); cited from earlier work
C57BL/6J mice [4] = assay: Obesity-related biochemical indices in liver tissue of high-fat diet mice; format: in vivo, mouse; conditions: 10 weeks
Method: as §3, with “Sigma-Aldrich.” for “Sigma-Aldrich. [table]”, “serum. Total cholesterol, triglyceride and glucose levels in the serum were measured twice for each using a commercially available kit (Bio Clinical system), and insulin level was measured by ELISA using a mouse insulin kit (Shibayaki, Japan). Lipids were extracted from the liver tissue according to Folch et al.'s method. After adding 1 mL of distilled water to 0.25 g of liver tissue, the liver tissue was homogenized using a Polytron homogenizer (IKA-Werke GmbH & Co., Ultra-Turrax, Staufen, Germany). After adding 5 mL of chloroform:methanol solution (2:1, v/v) to the homogenate and mixing well, the mixture was centrifuged at 1000×g for 10 minutes. After adding 2 mL of chloroform:methanol solution (2:1, v/v) again to the supernatant, the same procedure was repeated to completely separate the lipid components of the liver. After adding 3 mL of chloroform:methanol:0.05% CaCl2 (3:48:47, v/v/v) solution to the remaining pellets and mixing well for 1 minute, followed by centrifugation at 1000×g for 10 minutes, the resulting pellets were completely dried with nitrogen gas. The dried lipids were dissolved in 1 mL of methanol and then analyzed. The same kit (Bio Clinical system) as the one used for the serum analysis was used to measure the triglyceride level of the liver tissue.” for “serum.”

UCP3 = assay: RT-PCR mRNA expression in visceral fat tissue: UCP3; format: in vivo, mouse; conditions: versus HFD group, FIG. 7
Method: as §1, §2

UCP1 = assay: RT-PCR mRNA expression in visceral fat tissue: UCP1; format: in vivo, mouse; conditions: versus HFD group, FIG. 7
Method: as §1, §2

aP2 = assay: RT-PCR mRNA expression in epididymal (visceral) fat tissue: aP2; format: in vivo, mouse; conditions: as compared to the high-fat diet group, FIGS. 5a and 5b
Method: as §1, §2

IL-6 = assay: RT-PCR mRNA expression in visceral fat tissue: IL-6; format: in vivo, mouse; conditions: versus HFD group, FIGS. 6a and 6b
Method: as §1, §2

[5] = blood, camphene-administered group
[6] = liver tissue, camphene-administered group

C=C1C2CCC(C2)C1(C)C (racemic) [camphene]
C/EBPα mRNA expression in visceral fat tissue (C/EBPα): significantly decreased expression
differentiation of the preadipocytes (Oil Red O staining) (3T3-L1 cells; FIG. 1a): reduced the differentiation of the preadipocytes in a concentration-dependent manner
OD value (600 nm) of fats stained with Oil Red O (3T3-L1 cells; FIG. 1b): decreased in a concentration-dependent manner
growth of Gram-positive bacteria, Gram-negative bacteria and fungi [1]: inhibiting growth
PPARγ2 mRNA expression in visceral fat tissue (PPARγ2): significantly decreased expression
TNFα gene expression in visceral fat tissue (TNFα): decreased expression of TNFα and IL-6 genes back to the level of the ND group
lower accumulated body weight gain as compared to HFD control group (C57BL/6J mice [2]): 58%
lower final body weight as compared to HFD control group (C57BL/6J mice [2]): 33%
lower epididymal fat weight per body weight as compared to HFD (C57BL/6J mice [2]; P<0.001): 46%
lower mesenteric fat weight per body weight as compared to HFD (C57BL/6J mice [2]; P<0.001): 61%
lower perirenal fat weight per body weight as compared to HFD (C57BL/6J mice [2]; P<0.001): 76%
lower retroperitoneal fat weight per body weight as compared to HFD (C57BL/6J mice [2]; P<0.001): 48%
lower total visceral fat weight per body weight as compared to HFD (C57BL/6J mice [2]; P<0.001): 52%
lower arteriosclerotic index as compared to HFD (C57BL/6J mice [3]; 0.2% camphene in high-fat diet): 59%
lower fasting blood sugar level as compared to HFD (C57BL/6J mice [3]; 0.2% camphene in high-fat diet): 10%
lower insulin resistance (IRI) as compared to HFD (C57BL/6J mice [3]; 0.2% camphene in high-fat diet): 40%
lower serum LDL+VLDL cholesterol level as compared to HFD (C57BL/6J mice [3]; 0.2% camphene in high-fat diet): 79%
lower serum free fatty acid level as compared to HFD (C57BL/6J mice [3]; 0.2% camphene in high-fat diet): 86%
lower serum insulin level as compared to HFD (C57BL/6J mice [3]; 0.2% camphene in high-fat diet): 32%
lower serum total cholesterol level as compared to HFD (C57BL/6J mice [3]; 0.2% camphene in high-fat diet): 60%
lower serum triglyceride level as compared to HFD (C57BL/6J mice [3]; 0.2% camphene in high-fat diet): 69%
IRI (insulin resistance index) (C57BL/6J mice [3]; 10^−3 pmol insulin × mmol glucose × L^−2, camphene-administered group): 1.11 ± 0.21^b
Arteriosclerotic index (C57BL/6J mice [3]; (total cholesterol − HDL cholesterol)/HDL cholesterol, camphene-administered group): 0.42 ± 0.03^b
Free fatty acid (C57BL/6J mice [3]; [5]): 197 ± 6.7^c μEq/L
HDL cholesterol (C57BL/6J mice [3]; [5]): 1.02 ± 0.04^c mmol/L
Insulin (C57BL/6J mice [3]; [5]): 0.85 ± 0.23^b ng/mL
LDL + VLDL cholesterol (C57BL/6J mice [3]; [5]): 0.44 ± 0.05^b mmol/L
Total cholesterol (C57BL/6J mice [3]; [5]): 1.55 ± 0.11^b mmol/L
Triglyceride (C57BL/6J mice [3]; [5]): 0.44 ± 0.05^b mmol/L
Glucose (C57BL/6J mice [3]; blood, fasting, camphene-administered group): 7.6 ± 0.51^ab mmol/L
activity of the inflammation-inducing factor NF-κB (NF-κB): suppressing the activity
lower cholesterol level in the liver tissue as compared to HFD (C57BL/6J mice [4]; 0.2% camphene in high-fat diet): 86%
lower free fatty acid level in the liver tissue as compared to HFD (C57BL/6J mice [4]; 0.2% camphene in high-fat diet): 73%
lower liver weight per body weight as compared to HFD (C57BL/6J mice [4]; 0.2% camphene in high-fat diet): 22%
lower triglyceride level in the liver tissue as compared to HFD (C57BL/6J mice [4]; 0.2% camphene in high-fat diet): 58%
Liver weight (C57BL/6J mice [4]; camphene-administered group): 4.3 ± 0.32^b g/100 g body wt
Cholesterol (C57BL/6J mice [4]; [6]): 10.3 ± 2.6^c μmol/g
Free fatty acid (C57BL/6J mice [4]; [6]): 6.5 ± 0.91^b μEq/g
Triglyceride (C57BL/6J mice [4]; [6]): 14.7 ± 2.3^c μmol/g
UCP3 gene expression in visceral fat tissue (UCP3): increased expression
UCP1 gene expression in visceral fat tissue (UCP1): increased expression
aP2 mRNA expression in visceral fat tissue (aP2): significantly decreased expression
IL-6 gene expression in visceral fat tissue (IL-6): decreased expression of TNFα and IL-6 genes back to the level of the ND group
